Experimental data taken from ChEMBL document CHEMBL1201862, “PubChem BioAssay data set” (2004).
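Following 48 hours of exposure in 96-well plates, responses at five concentrations were used to interpolate endpoints linearly. The concentration for 50% growth inhibition is given as GI50.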 Active and inactive are the calls of the source. No stated cut-off is given here; in the data, active = GI50 up to about 1.1 µM and inactive = higher.

Tests used:
Test in all cases: NCI-60 cell line screen, 48 h
[1] = system: HCT-15
[2] = system: MCF7
[3] = system: HT-29
[4] = system: NCI-H23
[5] = system: SK-OV-3
[6] = system: EKVX
[7] = system: SK-MEL-28
[8] = system: SF-268
[9] = system: SN12C
[10] = system: Hs-578T
[11] = system: RXF 393
[12] = system: U-251
[13] = system: ACHN
[14] = system: PC-3
[15] = system: OVCAR-8
[16] = system: HOP-62
[17] = system: HCC 2998
[18] = system: Malme-3M
[19] = system: NCI-H522

Row | SMILES | GI50 [1] | GI50 [2] | GI50 [3] | GI50 [4] | GI50 [5] | GI50 [6] | GI50 [7] | GI50 [8] | GI50 [9] | GI50 [10] | GI50 [11] | GI50 [12] | GI50 [13] | GI50 [14] | GI50 [15] | GI50 [16] | GI50 [17] | GI50 [18] | GI50 [19]
1 | Brc1ccc(-c2ccc(-c3ccc(Br)s3)s2)s1 | > 100 µM | > 100 µM (inactive) | > 100 µM (inactive) | > 100 µM (inactive) | > 100 µM (inactive) | > 100 µM (inactive) | > 100 µM (inactive) | > 100 µM (inactive) | > 100 µM (inactive) | > 100 µM (inactive) | > 100 µM (inactive) | > 100 µM (inactive) | > 100 µM (inactive) | > 100 µM (inactive) | > 100 µM (inactive) | > 100 µM (inactive) | > 100 µM (inactive) |  | 
2 | O=C(O)CCNc1ncc2c(n1)-c1ccccc1OC2 | > 100 µM | > 100 µM (inactive) | > 100 µM (inactive) | > 100 µM (inactive) | > 100 µM (inactive) | 61.7 µM (inactive) | > 100 µM (inactive) | > 100 µM (inactive) | > 100 µM (inactive) | 61 µM (inactive) | > 100 µM (inactive) | > 100 µM (inactive) | > 100 µM (inactive) | > 100 µM (inactive) | > 100 µM (inactive) | > 100 µM (inactive) |  | > 100 µM (inactive) | > 100 µM (inactive)
3 | COP(=O)(OC)C(Nc1ccc(Cc2ccc(NC(c3ccco3)P(=O)(OC)OC)cc2)cc1)c1ccco1 (stereo not given) | > 100 µM | > 100 µM (inactive) | > 100 µM (inactive) | 14 µM (inactive) | 18.8 µM (inactive) | 20.9 µM (inactive) | > 100 µM (inactive) | 15.4 µM (inactive) | 97.1 µM (inactive) | 11.4 µM (inactive) | 5.83 µM (inactive) | 5.33 µM (inactive) | 20.9 µM (inactive) | 52.7 µM (inactive) | 65.5 µM (inactive) | 4.62 µM (inactive) |  | 47.9 µM (inactive) | 28.3 µM (inactive)
4 | O=C(CC(C(=O)c1cccs1)c1cccs1)c1ccsc1 (stereo not given) | 38.3 µM | 32.8 µM (inactive) | 57.9 µM (inactive) | 35.6 µM (inactive) | 50.1 µM (inactive) | 66.1 µM (inactive) | 47.5 µM (inactive) | 56.4 µM (inactive) | 39.4 µM (inactive) | > 100 µM (inactive) |  | 41.6 µM (inactive) | 67 µM (inactive) | 35.8 µM (inactive) | 59.2 µM (inactive) | 73.6 µM (inactive) | 57.4 µM (inactive) | 40.8 µM (inactive) | 
5 | COc1ccc(N(C(=O)OC(C)(C)C)[C@@H]2C(C)=C[C@H]([S@@+]([O-])c3ccc(C)cc3)[C@@H]3C(=O)N(C)C(=O)[C@@H]32)cc1 | 27.5 µM | 15.2 µM (inactive) | 21.5 µM (inactive) | 20.9 µM (inactive) | 13.2 µM (inactive) | 2.13 µM (inactive) | 18.7 µM (inactive) | 12.6 µM (inactive) | 11 µM (inactive) | 15.5 µM (inactive) | 15.3 µM (inactive) | 14 µM (inactive) | 20.5 µM (inactive) | 23.9 µM (inactive) | 20.5 µM (inactive) | 24.4 µM (inactive) |  | 18.6 µM (inactive) | 4.2 µM (inactive)
6 | COc1ccc(CC2c3cc(OC)c(OC)c(OC)c3CC[N+]2(C)C)cc1Oc1ccc(CC2c3cc4c(c(OC)c3CC[N+]2(C)C)OCO4)cc1 (stereo not given) | > 100 µM | 96.2 µM (inactive) | > 100 µM (inactive) | > 100 µM (inactive) | > 100 µM (inactive) | > 100 µM (inactive) | > 100 µM (inactive) | > 100 µM (inactive) | > 100 µM (inactive) | 80.9 µM (inactive) |  | > 100 µM (inactive) | > 100 µM (inactive) | > 100 µM (inactive) | > 100 µM (inactive) |  | > 100 µM (inactive) | > 100 µM (inactive) | > 100 µM (inactive)
